From patent US10399932B2, “Inhibitors of indoleamine-2,3-dioxygenase for the treatment of cancer” (BRISTOL-MYERS SQUIBB COMPANY, priority 2015, dated 2019)

target: T1, human IDO1 (Homo sapiens, UniProt P14902); experiment: Assessment of human IDO-1 inhibitory activity in HEK cells (human IDO1/HEK293 cells, Ehrlich reagent, absorbance at 490 nm); type: cell-based; design: expressed in transfected cells; details: In Vitro Potency in the HEK Human IDO-1 Cellular Assay
Summary of the method: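 Stable human IDO1-expressing HEK293 cells treated with compound for 20 h at 37 °C in phenol red-free RPMI/10% FBS. Stopped with 0.2% TCA (final) and heated 30 min at 50 °C; supernatant mixed with Ehrlich reagent, absorbance read at 490 nm. IC50 normalised to DMSO (0%) and 500 nM reference standard (100% inhibition).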

T1 sequence (P14902 whole entry): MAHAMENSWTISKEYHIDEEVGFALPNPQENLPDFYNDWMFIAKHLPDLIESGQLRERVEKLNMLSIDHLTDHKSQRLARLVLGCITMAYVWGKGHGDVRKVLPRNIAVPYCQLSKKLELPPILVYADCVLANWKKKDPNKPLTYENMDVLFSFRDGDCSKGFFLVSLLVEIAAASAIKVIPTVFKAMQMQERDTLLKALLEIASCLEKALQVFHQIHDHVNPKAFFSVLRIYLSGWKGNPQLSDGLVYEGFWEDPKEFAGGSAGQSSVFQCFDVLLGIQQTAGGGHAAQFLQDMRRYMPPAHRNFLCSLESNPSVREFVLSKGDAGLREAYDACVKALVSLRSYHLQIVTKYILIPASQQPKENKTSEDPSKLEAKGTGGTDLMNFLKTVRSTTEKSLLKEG

IC50 [nM]	Compound
< 5	CCOc1ccc(CC(=O)Nc2cc(C(CC(=O)O)C3CC3)ccc2N(CC(C)C)C2CCCCC2)cc1 (single isomer, unassigned) [Example 1250, 3-(4-(Cyclohexyl(isobutyl)amino)-3-(2-(4-ethoxyphenyl)acetamido)phenyl)-3-cyclopropylpropanoic acid]
< 50	Cc1cc(CC(=O)Nc2cc(C(CC(=O)O)C3CC3)ccc2N(CC(C)C)C2CCCCC2)no1 (single isomer, unassigned) [Example 1252, 3-(4-(Cyclohexyl(isobutyl)amino)-3-(2-(5-methylisoxazol-3-yl)acetamido)phenyl)-3-cyclopropylpropanoic acid]

target: T1, human IDO1; experiment: Assessment of human IDO-1 inhibitory activity in Hela cells (Interferon-gamma activated, Ehrlich reagent, absorbance at 490 nm); type: cell-based; design: endogenous in cells; host or cells: HeLa cells stimulated with interferon-gamma; details: 18 hours
Experimental: Exemplary compounds were tested for inhibition of IDO activity.
HeLa cells were seeded at 20,000 cells per 30 µL per well with RPMI/phenol red free media containing 10% FBS in a 384-well tissue culture plate (black with clear bottoms). 50 nL of compound was added to cells and incubated at 37° C. for one hour. 20 μL of the recombinant human Interferon-gamma (R&D System, Cat. #285-IF, at final concentration of 10 ng/ml) or recombinant murine Interferon-gamma (PEPROTECH® Inc., Cat. #315-05, final concentration of 5 ng/ml) was added to activate IDO signaling. The cells were incubated for 18 hours in 37° C. incubator with 5% CO2.
Compound treatment was stopped by adding 5 μl trichloroacetic acid to a final concentration of 3%. Subsequently, the cell plate was further incubated at 50° C. for 30 minute. An equal volume supernatant (20 μL) and 2% (w/v) Ehrlich reagent (4-dimethylaminobenzaldehyde) in glacial acetic acid were mixed in a new clear bottom 384-well plate. This plate was incubated at room temperature for 30 minutes. Absorbance at 490 nm was measured on Envision plate reader.
Compound IC50 values were calculated using counts from unstimulated (no INF-gamma treatment) wells as 100% inhibition. INF-gamma treatment without compound treatment as 0% inhibition.

IC50 [nM]	Compound
< 5	3-(3-((4-cyanophenyl)amino)-4-(ethyl (tetrahydro-2H-pyran-4-yl)amino) phenyl)-3-methylpentanoic acid [Example 27]
< 50	3-(4-((1,1-dioxidotetrahydro-2H-thiopyran-4-yl)(ethyl)amino)-3-((4-fluorophenyl)amino)phenyl)-4-isopropoxybutanoic acid [Example 340]
< 50	3-(5-((4-chlorophenyl) amino)-4-(ethyl(tetrahydro- 2H-pyran-4-yl)amino)-2- fluorophenyl)-4- methoxybutanoic acid [Example 852]
> 50	COCC(CC(=O)O)c1ccc(N2C[C@@H](C)O[C@@H](C)C2)c(Nc2ccc(C#N)cc2)c1 (single isomer, unassigned) [602 E2]
< 50	CCOc1ncc(Nc2cc(C(CC)CC(=O)O)ccc2N(CC)C2CCOC2)cn1 (single isomer, unassigned) [947 D1]
< 50	CCOc1ncc(Nc2cc(C(CC)CC(=O)O)ccc2N(CC)C2CCOC2)cn1 (single isomer, unassigned) [947 D2]
< 50	CCC(CC(=O)O)c1ccc(N(CC)C2CCOC2)c(NC(=O)Nc2ccc(Cl)cc2F)c1 (single isomer, unassigned) [948 D1]
< 50	CCC(CC(=O)O)c1ccc(N(CC)C2CCOC2)c(NC(=O)Nc2ccc(Cl)cc2F)c1 (single isomer, unassigned) [948 D2]
> 50	CCOc1ncc(Nc2cc(C(CC)CC(=O)O)ccc2N2CCOCC2)cn1 (single isomer, unassigned) [Example 7 Enantiomer 1, 3-(3-((2-Ethoxypyrimidin-5-yl)amino)-4-morpholinophenyl)pentanoic acid]
< 5	CCCN(c1ccc(C(CC)CC(=O)O)cc1Nc1ccc(C#N)cc1)C1CCS(=O)(=O)CC1 (single isomer, unassigned) [Example 12 Enantiomer 2, 3-(3-((4-Cyanophenyl)amino)-4-((1,1-dioxidotetrahydro-2H-thiopyran-4-yl)(propyl)amino)phenyl)pentanoic acid]
< 50	CCCN(c1ccc(C(CC)CC(=O)O)cc1Nc1cnc(OCC)nc1)C1CCS(=O)(=O)CC1 (single isomer, unassigned) [Example 13 Enantiomer 2, 3-(4-((1,1-Dioxidotetrahydro-2h-thiopyran-4-yl)(propyl)amino)-3-((2-ethoxypyrimidin-5-yl)amino)phenyl)pentanoic acid]
> 50	CCCN(c1ccc(C(CC)CC(=O)O)cc1NC(=O)Nc1ccc(C)cc1)C1CCS(=O)(=O)CC1 (single isomer, unassigned) [Example 14 Enantiomer 2, 3-(4-((1,1-Dioxidotetrahydro-2h-thiopyran-4-yl)(propyl)amino)-3-(3-(p-tolyl)ureido)phenyl)pentanoic acid]
< 5	CCN(c1ccc(C(CC(=O)O)C2CC2)cc1Nc1ccc(Cl)cc1)C1CCOCC1 (single isomer, unassigned) [Example 33 Enantiomer 2, 3-(3-((4-Chlorophenyl)amino)-4-(ethyl(tetrahydro-2H-pyran-4-yl)amino)phenyl)-3-cyclopropylpropanoic acid]
< 50	CCN(c1ccc(C(CC(=O)O)C2CC2)cc1Nc1cnc(OC)nc1)C1CCOCC1 (single isomer, unassigned) [Example 38, 3-cyclopropyl-3-(4-(ethyl(tetrahydro-2H-pyran-4-yl)amino)-3-((2-methoxypyrimidin-5-yl)amino)phenyl) propanoic acid]
< 50	CCOc1ncc(Nc2cc(C(CC(=O)O)C3CC3)ccc2N(CC)C2CCOCC2)cn1 (single isomer, unassigned) [Example 39, 3-cyclopropyl-3-(3-((2-ethoxypyrimidin-5-yl)amino)-4-(ethyl(tetrahydro-2H-pyran-4-yl)amino)phenyl)propanoic acid]
< 50	CCC(CC(=O)O)c1ccc(N2CCC(C)CC2)c(Nc2ccc(C#N)cc2)c1 (single isomer, unassigned) [Example 41 Enantiomer 2, 3-(3-((4-Cyanophenyl)amino)-4-(4-methylpiperidin-1-yl)phenyl)pentanoic acid]
> 50	CCC(CC(=O)O)c1ccc(N2CCC(C)CC2)c(Nc2cnc(OC)nc2)c1 (single isomer, unassigned) [Example 44, 3-(3-((2-methoxypyrimidin-5-yl)amino)-4-(4-methylpiperidin-1-yl)phenyl) pentanoic acid]
> 50	CCOc1ncc(Nc2cc(C(CC)CC(=O)O)ccc2N2CCC(C)CC2)cn1 (single isomer, unassigned) [Example 45, 3-(3-((2-ethoxypyrimidin-5-yl)amino)-4-(4-methylpiperidin-1-yl)phenyl)pentanoic acid]
> 50	CCC(CC(=O)O)c1ccc(N2CCC(C)CC2)c(NC(=O)Nc2ccc(C)cc2)c1 (single isomer, unassigned) [Example 46 Enantiomer 2, 3-(4-(4-Methylpiperidin-1-yl)-3-(3-(p-tolyl)ureido)phenyl) pentanoic acid]
< 5	CC(CC(=O)O)c1ccc(N(CC(C)(C)O)C2CCCCC2)c(Nc2ccc(Cl)cc2)c1 (single isomer, unassigned) [Example 48 Enantiomer 2, 3-(3-((4-Chlorophenyl)amino)-4-(cyclohexyl(2-hydroxy-2-methylpropyl)amino)phenyl)butanoic acid]
< 5	CCC(CC(=O)O)c1ccc(N(CC)C2CCCOC2)c(Nc2ccc(C#N)cc2)c1 (single isomer, unassigned) [Example 64, 3-(3-((4-cyanophenyl)amino)-4-(ethyl (tetrahydro-2H-pyran-3-yl)amino)phenyl)pentanoic acid]
< 5	CCOc1ncc(Nc2cc(C(CC)CC(=O)O)ccc2N(CC)C2CCCOC2)cn1 (single isomer, unassigned) [Example 66, 3-(3-((2-ethoxypyrimidin-5-yl)amino)-4-(ethyl(tetrahydro-2H-pyran-3-yl)amino)phenyl)pentanoic acid]
< 5	CCC(CC(=O)O)c1ccc(N(CC)C2CCCOC2)c(Nc2ccc(C#N)cc2)c1 (single isomer, unassigned) [Example 67, 3-(3-((4-cyanophenyl)amino)-4-(ethyl (tetrahydro-2H-pyran-3-yl)amino)phenyl)pentanoic acid]
< 5	CCOc1ncc(Nc2cc(C(CC)CC(=O)O)cc(F)c2N(CC)C2CCOCC2)cn1 (single isomer, unassigned) [Example 139, 3-(3-((2-ethoxypyrimidin-5-yl)amino)-4-(ethyl (tetrahydro-2H-pyran-4-yl)amino)-5-fluorophenyl)pentanoic acid]
